Data on 4 molecules can be found in patent publication US20150265572A1, “INJECTABLE CANCER COMPOSITIONS” (GENSPERA, INC., priority 2012, published 2015).

Starred links: 1 amine or outer side, 2 acyl side, 3 side chain; linkers in the order of their positions; H or OH if unused. Non-standard residues stand in square brackets, D forms with d. Residues, ends and D or L forms follow the SMILES beside them. γGlu = O=C(O)[C@H](CCC(=O)[*:2])N[*:1]

In data set [1] the test system is TSU prostate cancer cell line. Kind of data set: LD50 for killing against TSU prostate cancer cell line. In kind it is cell-based, human. The settings on record: TSU prostate cancer cell line (non-PSMA producing). The text has this:
The prodrugs are hydrolyzed by PSMA and release the corresponding Asp- or Glu-containing thapsigargin analogs, or the thapsigargin analog itself, and also lack potent cytotoxicity when not metabolized by PSMA. Non-PSMA producing TSU-Pr1 human prostate cancer cell line is exposed to each of the PSMA prodrugs at doses that are approximately 50-times the LD50 for the corresponding free thapsigargin analog.

Data set [2] is described as follows: Stability of peptides in serum. The class given is in vitro ADME.
The nature of data set [3]: Stability to hydrolysis in mouse plasma. The class given is in vitro ADME.
Data set [4] is described as follows: Stability to hydrolysis in human plasma. The class given is in vitro ADME.

As to 12ADT-Glu [Composition 12ADT-Glu], the “LD50 value for killing” value in data set [1] was “approximately 50 nM”.
Take `NC(=O)CC[C@H](NC(=O)[C@H](CC(=O)O)NC(=O)CC[C@H](NC(=O)CC[C@H](NC(=O)CC[C@H](N)C(=O)O)C(=O)O)C(=O)O)C(=O)O` [Glu*Glu*Glu*Asp-Gln] ({γGlu-γGlu-γGlu}-Asp-Gln-OH; N-terminus and C-terminus assumed): in data set [2], the stability in serum result is recorded as “high stability”.
The same measure, in the same setting: the result for `N[C@@H](CCC(=O)N[C@@H](CCC(=O)N[C@@H](CCC(=O)N[C@@H](CC(=O)O)C(=O)N[C@@H](CCC(=O)O)C(=O)O)C(=O)O)C(=O)O)C(=O)O` [Glu*Glu*Glu*Asp-Glu] ({γGlu-γGlu-γGlu}-Asp-Glu-OH; N-terminus and C-terminus assumed) reads “high stability”.
For `N[C@@H](CC(=O)O)C(=O)N[C@@H](CCC(=O)N[C@@H](CCC(=O)N[C@@H](CC(=O)O)C(=O)N[C@@H](CCC(=O)O)C(=O)O)C(=O)O)C(=O)O` [Asp-Glu*Glu*Asp-Glu] (H-D[γGlu][γGlu]DE-OH; N-terminus and C-terminus assumed), the “stability to hydrolysis in plasma” value in data set [3] and in data set [4] was “completely stable” each time.
